Reference: patent EP4813463A2, “TYK2 INHIBITORS AND COMPOSITIONS AND METHODS THEREOF” (Lynk Pharmaceuticals Co. Ltd., priority 2023, dated 2024)
Like-named read-outs stand apart in the source and are kept apart here.

How the values were obtained:
[1] = test system: Ba/F3-FL-TYK2-P760L cells; test: Anti-proliferative assay in engineered Ba/F3 cells (Cell-Titer Glo, 72 h); type: cell-based; settings: 72 h compound treatment, concentration that causes 50% growth inhibition, read-out: Baf3-FL-T2P760L
Summary of the method: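 IC50 from luminescent ATP viability after 72 h compound exposure (37 °C, 5% CO2), % inhibition normalised to DMSO-treated cells minus medium blank. IL-3-free Ba/F3-FL-TYK2-P760L (Tel-JAK fusion) cells in 10% FBS RPMI-1640 received 9 three-fold doses, top 20 µM, 0.1% DMSO.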

[2] = test system: pSTAT1; test: Phosphorylation inhibition of STAT in human whole blood (IFN-alpha stimulated, flow cytometry); type: cell-based; settings: T-cell, 20 min, IFN-alpha stimulation 20 mins, CD3 T cells, read-out: pSTAT1 inhibition in hWB (IC50)
Experimental: The inhibitory potential of test articles in human whole blood assay was evaluated by the method of flow cytometry.
IFN-alpha will activate JAK1 and TYK2 kinase in T cells by binding to IFN receptors, and then lead to phosphorylation of STAT1 and STAT2. The phosphorylated STAT1 enter nuclear and promote transcription and expression of IFN-gamma. To evaluate the efficacy of TYK2i in T cells, freshly collected human whole blood will be stimulated with certain unit of human IFN-alpha (Universal Type I IFN(1MU), R&D, 11200-2) for 20 mins in incubator. After stimulation, fix cells with Phosflow™ Fix Buffer I (BD, 557870), and then collect fixed cells by centrifugation (500 g, 8min). Wash cells once with pre-cooled PBS, and then permeabilize cells with cold Perm Buffer III buffer (BD, 558050) for 45 mins on ice. Collect cells by centrifugation (600 g, 8min) and washed twice with cold PBS. Stain cells with anti-human CD3(FITC Mouse Anti-Human CD3, BD, 555332) and anti-pSTAT1_Y701(Alexa Fluor 647 Mouse Anti-Stat1 (pY701), BD, 612597) antibodies. Detect pSTAT1 by flow cytometry (CytoFlex S) and analyze data with FlowJo and GraphPad Prism 8 software. IC50 values of test articles were determined using 4- parameter logistic equation.

[3] = molecular target: T1, JAK1-JH2 domain (Homo sapiens, UniProt P23458); test: Binding activity test for JH2 domain of JAK1 (Tb-antibody/tracer FRET); settings: JH2 domain enzyme; 60 min at 25°C, then 4°C overnight; read-out: JAK1 JH2 Binding IC50
T1 construct: JAK1-JH2 domain or TYK2-JH2 domain enzyme in assay buffer
T1 sequence (P23458 583-855 limits assumed): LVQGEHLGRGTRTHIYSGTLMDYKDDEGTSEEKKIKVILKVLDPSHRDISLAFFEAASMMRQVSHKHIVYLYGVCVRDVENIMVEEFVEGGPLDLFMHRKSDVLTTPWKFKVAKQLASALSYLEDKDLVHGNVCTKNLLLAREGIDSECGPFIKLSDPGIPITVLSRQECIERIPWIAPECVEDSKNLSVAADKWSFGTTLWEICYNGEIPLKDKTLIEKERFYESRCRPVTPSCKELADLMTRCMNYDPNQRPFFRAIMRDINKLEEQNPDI
Summary of the method: (§1)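 IC50 values (nM) come from TR-FRET readings taken after a 25°C incubation followed by overnight at 4°C. Each well held JH2 domain protein, Tb-antibody, tracer and test compound titrated in 11 threefold steps, with DMSO high and low controls.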

[4] = molecular target: T2, TYK2-JH2 domain (Homo sapiens, UniProt P29597); test: Binding activity test for JH2 domain of TYK2 (Tb-antibody/tracer FRET); settings: for IC50: JH2 domain enzyme, 60 min at 25°C, then 4°C overnight, read-out: TYK2 JH2 Binding IC50; for JAK1/TYK2 selectivity: ratio of JAK1 JH2 to TYK2 JH2 binding IC50
T2 construct: JAK1-JH2 domain or TYK2-JH2 domain enzyme in assay buffer
T2 sequence (P29597 589-875 limits assumed): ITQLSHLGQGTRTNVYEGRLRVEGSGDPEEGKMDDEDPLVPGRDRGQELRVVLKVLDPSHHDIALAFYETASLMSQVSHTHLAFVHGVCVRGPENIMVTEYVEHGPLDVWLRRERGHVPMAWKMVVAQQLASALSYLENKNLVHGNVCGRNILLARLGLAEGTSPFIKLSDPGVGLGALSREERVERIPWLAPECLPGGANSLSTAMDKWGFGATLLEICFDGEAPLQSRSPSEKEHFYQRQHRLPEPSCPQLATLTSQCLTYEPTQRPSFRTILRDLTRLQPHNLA
Summary of the method: as §1

[5] = Microsomal metabolic stability assay; type: in vitro ADME; settings: human, liver microsomes, pH 7.4, 0.5 mg/mL microsomal protein, 1 µM test article, 2 mM NADPH; for microsomal CLint at 1 µM: read-out: Human LM Clint; for half-life at 1 µM: read-out: Human LM T1/2
Experimental: Microsomes were pre-incubated with test compound or control compounds for 5 min at 37°C in 100 mM potassium phosphate buffer, pH 7.4, 1.0 mM EDTA. The reaction was initiated by addition of 15 µL of the NADPH regenerating system to 30 µL of each incubation mixture per time point. The final incubation condition was composed of 0.5 mg/mL microsomal protein, 1 µM test article/positive control, 2 mM NADPH. The 0-minute samples were prepared by addition of a 30 µL aliquot of each incubation mixture to 135 µL quench reagent to precipitate proteins. And then a 15 µL aliquot of the NADPH regenerating system was added. At 5, 15, 30 and 45 minutes, the reaction will be stopped by the addition of cold acetonitrile solution containing internal standard. The samples taken at all time points were centrifuged at 5000×g for 15 minutes. 50 µL of supernatant are taken into 96-well assay plates pre-added with 50 µL ultrapure water, and then analyzed by LC/MS/MS.
Concentrations of test articles, control compounds in the samples were determined by using LC/MS/MS method. Plotting of the chromatograms and peak area integrations are carried out by Analyst (AB Sciex).
In the determination of the in vitro elimination constant (ke) of the control compounds, the analyte/internal standard peak area ratios will be converted to percentage remaining (%Remaining) with the following equation: %Remaining = (Peak area ratio of analyte to IS at each time point)/(Peak area ratio of analyte to IS at t = 0) × 100% [formula]
The CLint of microsomes was calculated using the formula: CLint (mic)=0.693/T1/2 /mg microsome protein per mL. The slope was measured by the natural logarithm of the percentage of the residual compound and time, T1/2 was calculated according to the following formula. T = (0.693)/(−slope) [formula]

| Compound | IC50 ([1]; Mus musculus, BaF3, 72 h) [nM] | IC50 [2] [nM] | IC50 [3] [nM] | IC50 [4] [nM] | JAK1/TYK2 selectivity [4] | IC50 [1] [nM] | microsomal CLint at 1 µM [5] [µL/min/mg] | half-life at 1 µM [5] [h] |
| --- | --- | --- | --- | --- | --- | --- | --- | --- |
| [2H]C([2H])([2H])NC(=O)c1cnc(NC(=O)C2CC2)cc1Nc1cnn2ccc(CC#N)c(OC)c12 [Example 18, 4-((5-(Cyanomethyl)-4-methoxypyrazolo[1,5-a]pyridin-3-yl)amino)-6-(cyclopropanecarboxamido)-N-(methyl-d3)nicotinamide] | 90.3 | 84.3 | 1.63 | 0.13 | 12.5 |  |  |  |
| [2H]C([2H])([2H])NC(=O)c1cnc(NC(=O)[C@@H]2C[C@@H]2F)cc1Nc1nn(C)c2ccc([C@H](OC([2H])([2H])[2H])C(F)(F)F)c(OC)c12 [Example 192, 6-((1S,2S)-2-Fluorocyclopropane-1-carboxamido)-4-((4-methoxy-1-methyl-5-((S)-2,2,2-trifluoro-1-(methoxy-d3)ethyl)-1H-indazol-3-yl)amino)-N-(methyl-d3)nicotinamide] | 0.088 | 24.6 | 2.63 | 0.075 | 35.08 |  |  |  |
| [2H]C([2H])([2H])NC(=O)c1cnc(NC(=O)C2CC2)nc1Nc1cnn2ccc(Cl)c(OC)c12 [Example 4, 4-((5-Chloro-4-methoxypyrazolo[1,5-a]pyridin-3-yl)amino)-2-(cyclopropanecarboxamido)-N-(methyl-d3)pyrimidine-5-carboxamide] | 38.9 | 312 | 15.3 | 0.164 | 93.5 |  |  |  |
| [2H]C([2H])([2H])NC(=O)c1cnc(NC(=O)C2CC2)cc1Nc1nn(CC)c2ccc(C(O)C(F)(F)F)c(OC)c12 (single isomer, unassigned) [Example 71A, (S*)-6-(cyclopropanecarboxamido)-4-((1-ethyl-4-methoxy-5-(2,2,2-trifluoro-1-hydroxyethyl)-1H-indazol-3-yl)amino)-N-(methyl-d3)nicotinamide] |  | 54.9 | 7.26 | 0.14 | 51.84 | 0.412 |  |  |
| [2H]C([2H])([2H])NC(=O)c1nnc(NC(=O)C2CC2)cc1Nc1ncn2cccc2c1OC [Example 198, 6-(Cyclopropanecarboxamido)-4-((4-methoxypyrrolo[1,2-c]pyrimidin-3-yl)amino)-N-(methyl-d3)pyridazine-3-carboxamide, reference compound] | 260 | 1470 | 10.4 | 1.48 | 7.0 |  |  |  |
| [2H]C([2H])([2H])NC(=O)c1cnc(NC(=O)C2CC2)cc1Nc1cnn2ccc(CO)c(OC)c12 [Example 22, 6-(Cyclopropanecarboxamido)-4-((5-(hydroxymethyl)-4-methoxypyrazolo[1,5-a]pyridin-3-yl)amino)-N-(methyl-d3)nicotinamide] | 127 | 80.8 | 7.5 | 0.185 | 40.6 |  | 4.5 | 5.13 |
| [2H]C([2H])([2H])OC(c1ccc2c(c(Nc3cc(NC(=O)C4CC4)ncc3C(=O)OC)nn2C([2H])([2H])[2H])c1OC)C(F)F (stereo not drawn) [Example 102, Methyl 6-(cyclopropanecarboxamido)-4-((5-(2,2-difluoro-1-(methoxy-d3)ethyl)-4-methoxy-1-(methyl-d3)-1H-indazol-3-yl)amino)nicotinate] | 3.9 |  | 18.5 | 0.19 | 99.81 |  | 29.8 | 0.776 |
| COC(=O)c1cnc(NC(=O)C2CC2)cc1Nc1nc2ccc(N3CC(OC)C3)cn2n1 [Example 107, Methyl 6-(cyclopropanecarbonylamino)-4-[[6-(3-methoxyazetidin-1-yl)-[1,2,4]triazolo[1,5-a]pyridin-2-yl]amino]pyridine-3-carboxylate] | 27.8 | 401 |  | 0.25 |  |  |  |  |
| [2H]C([2H])([2H])NC(=O)c1cnc(NC(=O)C2CC2)cc1Nc1cnn2cnc(OC)c(OC)c12 [Example 35, 6-(Cyclopropanecarboxamido)-4-((4,5-dimethoxypyrazolo[1,5-c]pyrimidin-3-yl)amino)-N-(methyl-d3)nicotinamide] | 2340 |  | 92.3 | 8.27 | 11.2 |  | 5.72 | 4.04 |
| [2H]C([2H])([2H])NC(=O)c1cnc(NC(=O)C2CC2)cc1Nc1cnn2cnc(C(C)C(F)(F)F)c(OC)c12 (stereo not drawn) [Example 37, 6-(Cyclopropanecarboxamido)-4-((4-methoxy-5-(1,1,1-trifluoropropan-2-yl)pyrazolo[1,5-c]pyrimidin-3-yl)amino)-N-(methyl-d3)nicotinamide] | 768 |  | 111 | 1.65 | 67.1 |  | 12.3 | 1.88 |
| [2H]C([2H])([2H])NC(=O)c1nnc(NC(=O)C2CC2)cc1Nc1nn(C)c2ccc([C@H](OC)C(F)(F)F)c(OC)c12 [Example 51B, (S)-6-(cyclopropanecarboxamido)-4-((4-methoxy-1-methyl-5-(2,2,2-trifluoro-1-methoxyethyl)-1H-indazol-3-yl)amino)-N-(methyl-d3)pyridazine-3-carboxamide] | 0.399 | 76.5 | 1.27 | 0.171 | 7.43 |  | 8.06 | 2.87 |
| [2H]C([2H])([2H])NC(=O)c1cnc(NC(=O)[C@@H]2C[C@@H]2F)cc1Nc1cnn2ccc(COC)c(OC)c12 [Example 17, 6-((1S,2S)-2-fluorocyclopropane-1-carboxamido)-4-((4-methoxy-5-(methoxymethyl)pyrazolo[1,5-a]pyridin-3-yl)amino)-N-(methyl-d3)nicotinamide] | 84.3 |  | 12.7 | 0.102 | 125.0 |  | 12.3 | 1.87 |
| [2H]C([2H])([2H])CC(=O)c1cnc(NC(=O)C2CC2)cc1Nc1cnn2ccc([C@H](O)C(F)(F)F)c(OC)c12 [Example 141, (S)-N-(4-((4-methoxy-5-(2,2,2-trifluoro-1-hydroxyethyl)pyrazolo[1,5-a]pyridin-3-yl)amino)-5-(propanoyl-3,3,3-d3)pyridin-2-yl)cyclopropanecarboxamide] | 11.3 | 177 |  | 0.075 |  |  |  |  |
